# Test results from patent publication US20180280400A1, “TRANSDERMAL ADMINISTRATION SYSTEM FOR USE IN THE TREATMENT OF CHRONIC BRONCHOPULMONARY DISEASES” (ABC FARMACEUTICI S.P.A., priority 2013, published 2018).
# Columns and labels:
# [1] = In vitro-ex vivo skin permeation across human epidermis, Franz diffusion cells; assay type: in vitro ADME; conditions: 4% w/v, up to 24 hours
# Description: The Franz diffusion cells comprise two compartments, one containing the active ingredient (donor vehicle) and the other containing a receiving solution, separated by a slice of human epidermis. The vertical cells used in the actual experimental unit have a wider column than that in the original Franz type of diffusion cell, and the decanter shape was dispensed with. These have a diffusion area of 0.636 cm^2 and a receiving compartment of approximately 3.0 ml. The receiving volume in each cell is individually calibrated and equipped with a magnetic stirrer. Human epidermis was selected as the membrane for skin permeation studies. The skin used in the studies was obtained from the abdominal skin of a donor who underwent cosmetic surgery. The skin samples were prepared following an internal standard procedure. The full thickness of the skin was sealed in evacuated plastic bags and frozen at -20° C. within 6 hours of removal. Before the experiments the skin was thawed out at ambient temperature and excess fat was completely removed. […] The integrity of the skin was evaluated by measuring the impedance of each sample (Agilent LCR Meter 4263B). Subsequently the epidermis was mounted in the Franz diffusion cell, the receiving compartment of which was filled with saline solution (NaCl 0.9% w/v) filtered using a 0.22 μm filter (VWR, nylon membrane). […]
# [2] = test system: human endothelial cells from the umbilical vein (HUVEC); test: MTT cytotoxicity test, HUVEC; assay type: cell-based
# [3] = test system: human keratinocyte cell lines (HACAT); test: MTT cytotoxicity test, HACAT; assay type: cell-based
# [4] = test system: human fibroblast cell lines (HFF); test: MTT cytotoxicity test, HFF; assay type: cell-based
# in vitro = conditions: dog, MDCK, pH 7.4
# Description: (§1) MDCK cells were kept in Minimal Essential Medium Eagle (EMEM) containing 10% FBS, 2 nM of fresh L-glutamine and 2 nM of penicillin-streptomycin. The culture inserts were inseminated with 664000 cells per cm^2 (0.33 cm^2 per insert). The monolayers of MDCK were cultured for three days before use. The monolayers were washed with Hanks Balanced Salt Solution (HBSS+10 nM Hepes pH 7.4) transport medium; the electrical resistance of each monolayer was measured at 37° C. using a Millicell ERS-2 (Millipore). Background resistance values were subtracted from the resistance values of treated wells of monolayer. The resulting value was multiplied by the area of the membrane (0.33 cm^2) to calculate the transepithelial electrical resistance values (TEER (Ω cm^2)) for each monolayer. TEER values indicate the degree of confluence of the monolayer and the development of tight junctions. If the resistance was <200 Ω cm^2 the test was continued. MDCK monolayers having TEER values>200 Ω cm^2 were not used. The donor solutions in the transport test comprised 100 μM of test compound in the transport medium containing 100 nM of fluorescein isocyanate-dextran. The transport tests were performed using 0.250 ml of apical donor solution and 1 ml of basolateral acceptor solution (transport medium, pH 7.4). […] The monolayers were incubated with donor and acceptor solutions for 120 minutes at 37° C. The basolateral compartments were sampled after 120 minutes and analysed using LC-MS/MS, together with an aliquot of the donor solutions in the transport test (100 μM of the test compound) corresponding to (sample at time zero).
# (§2) in which dQ/dt is the permeation velocity, CA is the initial concentration in the donor compartment and A is the surface area of the filter. […]
# (§3) The integrated peak area for the LC-MS/MS chromatograms was used as the instrument response (INRE) for relative quantification of the test material.
# (§4) The permeability of the test material was then evaluated by comparing the INRE for five replicates after two hours incubation, on the basis of the INRE response to the t0 samples.
# [5] = with chemical potentiating agents, including oleic acid; cited from earlier work
# Description for MDCK monolayers: as §1, §2, §3, §4
permeability value (in words) (MDCK monolayers),"Papp A→B at 120 min, 100 µM (in vitro)",Compound,"skin permeability values (permeate over time) ([1]; aqueous solvent, FIG. 1)","skin permeability values (permeate over time) ([1]; triacetin solvent, FIG. 2)",cytotoxicity (MTT test) [2],cytotoxicity (MTT test) [3],cytotoxicity (MTT test) [4],administered flow through human skin [5]
high permeability value,22.7 ×10⁻⁶ cm/s,"Cn1c(=O)c2c(ncn2CC2OCCO2)n(C)c1=O [Doxofylline, 2-(7′-theophyllinemethyl)-1,3-dioxolane]",substantially higher than those for theophylline,substantially higher than those for theophylline,no cytotoxicity,no cytotoxicity,no cytotoxicity,
,6.52 ×10⁻⁶ cm/s,"COCCc1ccc(OCC(O)CNC(C)C)cc1 (stereo not drawn) [Metoprolol, metoprolol]",,,,,,
,,"Cn1c(=O)c2[nH]cnc2n(C)c1=O [Theophylline, theophylline]",,,,,,insufficient
